Experiment [1] addresses FGFR3 (Homo sapiens (Human), UniProt P22607). The experiment in a line: FGFR3 in vitro kinase inhibitory activity assay (TRF, biotinylated Flt3 substrate). The class given is biochemical. The protocol: Enzymes (from Upstate) were prepared at 2× final concentration in 1× kinase assay buffer (as described below). Enzymes were then incubated with test compounds, biotinylated Flt3 substrate (biotin—DNEYFYV) (Cell Signalling Technology Inc.) and ATP. The reaction was allowed to proceed for 3 hours (FGFR3) or 2.5 hrs (PDGFR-beta) at room temperature on a plate shaker at 900 rpm before being stopped with 20 μl of 35 mM EDTA, pH 8 (FGFR3) or 55 mM EDTA, pH 8 (PDGFR-beta). […] The plate was then read on a Packard Fusion plate reader in TRF mode.
Kinase Assay buffers were:
A: 50 mM HEPES pH 7.5, 6 mM MnCl2, 1 mM DTT, 0.1% TritonX-100

For experiment [2], the system named is LP-1 cell line. The experiment in a line: Cell-based pERK ELISA method, LP-1 cells. The conditions noted are these: Homo sapiens. Background: In an ELISA, binding on a coated surface is turned into a signal by an enzyme label.
Experimental: LP-1 or JIM-1 multiple myeloma cells were seeded in 96 well plates at 1×10^6 cells/ml in 200 ul per well in serum free media. […] Cells were incubated for 16 h at 37° C. prior to the addition of a test compound for 30 minutes. Test compounds were administered at a 0.1% final DMSO concentration. […] ELISA plates and standards were prepared according o the standard DuoSet protocols and the relative amounts of pERK to total ERK in each sample calculated according to the standard curve.
In particular, compounds of the invention were tested against the LP-1 cell line (DSMZ no.: ACC 41) derived from human multiple myeloma.
Where [3] appears, read: read-out: IC50 less than 1 μM or at least 50% inhibition of the FGFR3 activity at a concentration of 1 μM.
Setting [4] is: LP-1, read-out: IC50 less than 1 μM or at least 50% inhibition at a concentration of 1 μM, LP-1 pERK ELISA.

Where a name gives a salt, the structure may show the parent alone. Read-outs that look alike come from different tables or passages of the source. Where only a bound is given, the exact number is not on record here.

FGFR3, sequence (P22607 23-806): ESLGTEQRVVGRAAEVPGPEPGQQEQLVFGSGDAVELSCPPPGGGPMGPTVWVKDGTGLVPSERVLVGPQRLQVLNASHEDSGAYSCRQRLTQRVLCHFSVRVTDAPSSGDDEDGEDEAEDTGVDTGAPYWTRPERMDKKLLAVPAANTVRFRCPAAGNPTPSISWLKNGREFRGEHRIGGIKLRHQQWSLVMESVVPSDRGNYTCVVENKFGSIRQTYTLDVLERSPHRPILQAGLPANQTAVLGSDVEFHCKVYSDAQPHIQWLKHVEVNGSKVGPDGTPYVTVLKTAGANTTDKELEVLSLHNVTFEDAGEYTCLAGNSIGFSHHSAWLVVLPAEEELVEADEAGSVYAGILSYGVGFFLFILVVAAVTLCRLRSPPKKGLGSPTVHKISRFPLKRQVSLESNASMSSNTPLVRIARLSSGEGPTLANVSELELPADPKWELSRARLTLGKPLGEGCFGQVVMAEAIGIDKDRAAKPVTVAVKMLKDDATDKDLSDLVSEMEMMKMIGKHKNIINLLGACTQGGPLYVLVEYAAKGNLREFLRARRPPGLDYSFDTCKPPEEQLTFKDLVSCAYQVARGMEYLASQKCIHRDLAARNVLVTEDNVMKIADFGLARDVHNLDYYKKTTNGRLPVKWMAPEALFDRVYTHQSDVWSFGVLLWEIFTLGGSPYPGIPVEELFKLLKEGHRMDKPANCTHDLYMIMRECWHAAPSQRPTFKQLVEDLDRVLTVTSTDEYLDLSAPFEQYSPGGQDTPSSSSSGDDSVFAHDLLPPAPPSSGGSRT

Regarding `COc1ccc(-c2ccc3ncc(-c4cccc(NC(C)=O)c4)n3c2)cc1` [Example 100, N-{3-[6-(4-Methoxy-phenyl)-imidazo[1,2-a]pyridin-3-yl]-phenyl}-acetamide formate salt], in experiment [1] (setting [3]), the IC50 was below 1000 nM.

For the molecule `Cc1c(-c2ccn3c(-c4cccc(NC(=O)NCC(F)(F)F)c4)cnc3c2)ncn1C` [Example 374, 1-{3-[7-(1,5-Dimethyl-1H-imidazol-4-yl)-imidazo[1,2-a]pyridin-3-yl]-phenyl}-3-(2,2,2-trifluoro-ethyl)-urea], the inhibition (as a rule, the relative decrease from the control value, in per cent) at 0.001 µM in experiment [1] (% inhibition at 0.001 μM, read-out: FGFR3 IC50 or % inhibition) was found to be 64%. Further, the IC50 in experiment [2] (LP-1, read-out: LP-1 pERK ELISA (μM)) came out at 0.0084 µM.

Take `Fc1ccc(-c2ccn3c(-c4ccc5[nH]ccc5c4)cnc3c2)cc1` [Example 70, 7-(4-Fluoro-phenyl)-3-(1H-indol-5-yl)-imidazo[1,2-a]pyridine formate salt]: the IC50 in experiment [1] (setting [3]) is below 1000 nM.

For `Cc1nc(C)n(-c2ccn3c(-c4cccc(NC(=O)NCC(F)(F)F)c4)cnc3c2)n1` [Example 414, 1-{3-[7-(3,5-Dimethyl-[1,2,4]triazol-1-yl)-imidazo[1,2-a]pyridin-3-yl]-phenyl}-3-(2,2,2-trifluoro-ethyl)-urea], the IC50 in experiment [1] (setting [3]) was below 1000 nM; in experiment [1] (read-out: IC50 less than 10 μM or at least 50% inhibition of the FGFR3 activity at a concentration of 10 μM), below 10000 nM; in experiment [2] (setting [4]), below 1 µM.

Consider `CCS(=O)(=O)N1CCN(c2ccn3c(-c4cccc(NC(=O)NCC(F)(F)F)c4)cnc3c2)CC1` [Example 177, 1-{3-[7-(4-Ethanesulfonyl-piperazin-1-yl)-imidazo[1,2-a]pyridin-3-yl]-phenyl}-3-(2,2,2-trifluoro-ethyl)-urea hydrochloride salt], for which the IC50 in experiment [2] (setting [4]) is below 1 µM.

`O=C(NCC(F)(F)F)Nc1cccc(-c2cnc3cc(-c4ccccc4)ccn23)c1` [Example 149, 1-[3-(7-Phenyl-imidazo[1,2-a]pyridin-3-yl)-phenyl]-3-(2,2,2-trifluoro-ethyl)-urea Hydrochloride]: the IC50 in experiment [2] (setting [4]) was below 1 µM.

For `CCCC(=O)Nc1cccc(-c2cnc3cc(-c4ccc(F)cc4)ccn23)c1` [Example 66, N-{3-[7-(4-Fluoro-phenyl)-imidazo[1,2-a]pyridin-3-yl]-phenyl}-butyramide], the IC50 in experiment [2] (setting [4]) is below 1 µM.

With `COc1cncc(-c2ccc3ncc(-c4cccc(NC(C)=O)c4)n3c2)c1` [Example 101, N-{3-[6-(5-Methoxy-pyridin-3-yl)-imidazo[1,2-a]pyridin-3-yl]-phenyl}-acetamide], in experiment [1] (setting [3]), the IC50 was below 1000 nM.

Regarding `O=C(NCC(F)(F)F)Nc1cccc(-c2cnc3cc(-c4ccc(=O)n(CCCN5CCCCC5)c4)ccn23)c1` [Example 208, 1-(3-{7-[6-Oxo-1-(3-piperidin-1-yl-propyl)-1,6-dihydro-pyridin-3-yl]-imidazo[1,2-a]pyridin-3-yl}-phenyl)-3-(2,2,2-trifluoro-ethyl)-urea Hydrochloride], the IC50 in experiment [2] (setting [4]) was below 1 µM.

In the case of `CC(=O)Nc1cccc(-c2cnc3ccc(-c4ccoc4)cn23)c1` [Example 104, N-[3-(6-Furan-3-yl-imidazo[1,2-a]pyridin-3-yl)-phenyl]-acetamide], in experiment [2] (setting [4]), the IC50 is below 1 µM.

Values taken from patent publication US8895745B2, “Bicyclic heterocyclic compounds as FGFR inhibitors” (Astex Therapeutics Limited, priority 2006, dated 2014).
